Reference: ChEMBL document CHEMBL2440026, “Hit-to-lead optimization of 2-(1H-pyrazol-1-yl)-thiazole derivatives as a novel class of EP1 receptor antagonists” (Bioorg Med Chem Lett, 2013)
pIC50, pKi: −log10 of the molar value.

Assays:
[1] = target: T1, Prostaglandin E2 receptor EP1 subtype (Homo sapiens, UniProt P34995); experiment: Antagonist activity at human EP1 receptor by reporter gene assay
T1 sequence (P34995 whole entry): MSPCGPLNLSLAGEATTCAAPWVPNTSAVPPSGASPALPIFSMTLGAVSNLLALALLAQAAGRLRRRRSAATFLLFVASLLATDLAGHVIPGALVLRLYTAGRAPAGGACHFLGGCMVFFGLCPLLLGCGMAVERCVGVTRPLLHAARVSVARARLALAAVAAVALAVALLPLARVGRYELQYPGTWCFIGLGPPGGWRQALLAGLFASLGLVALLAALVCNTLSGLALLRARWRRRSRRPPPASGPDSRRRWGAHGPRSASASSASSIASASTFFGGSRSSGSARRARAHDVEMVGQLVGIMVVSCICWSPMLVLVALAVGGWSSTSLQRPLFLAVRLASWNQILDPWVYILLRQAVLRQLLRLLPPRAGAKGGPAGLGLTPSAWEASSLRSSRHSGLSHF

[2] = target: T2, Prostaglandin E2 receptor EP1 subtype (Homo sapiens) (UniProt P34995); experiment: Antagonist activity at human EP1 receptor at 1.1 uM by reporter gene assay
T2 sequence (whole entry): T1 sequence (P34995 whole entry)

[3] = test system: Salmonella typhimurium; experiment: Genotoxicity in Salmonella typhimurium TA100; format: toxicity, organism-based; conditions: salmonella enterica subsp. enterica serovar typhimurium
[4] = test system: Salmonella typhimurium; experiment: Genotoxicity in Salmonella typhimurium TA98; format: toxicity, organism-based; conditions: salmonella enterica subsp. enterica serovar typhimurium
[5] = Apparent permeability from apical to basolateral side in MDCK cells; format: ADME, cell-based, Canis lupus familiaris; conditions: dog
[6] = target: T3, Prostaglandin E2 receptor EP4 subtype (Homo sapiens, UniProt P35408); experiment: Binding affinity to human EP4 receptor
[7] = target: T4, Prostaglandin E2 receptor EP2 subtype (Homo sapiens, UniProt P43116); experiment: Binding affinity to human EP2 receptor
[8] = target: T5, Prostaglandin E2 receptor EP3 subtype (Homo sapiens, UniProt P43115); experiment: Binding affinity to human EP3 receptor
T5 sequence (P43115 whole entry): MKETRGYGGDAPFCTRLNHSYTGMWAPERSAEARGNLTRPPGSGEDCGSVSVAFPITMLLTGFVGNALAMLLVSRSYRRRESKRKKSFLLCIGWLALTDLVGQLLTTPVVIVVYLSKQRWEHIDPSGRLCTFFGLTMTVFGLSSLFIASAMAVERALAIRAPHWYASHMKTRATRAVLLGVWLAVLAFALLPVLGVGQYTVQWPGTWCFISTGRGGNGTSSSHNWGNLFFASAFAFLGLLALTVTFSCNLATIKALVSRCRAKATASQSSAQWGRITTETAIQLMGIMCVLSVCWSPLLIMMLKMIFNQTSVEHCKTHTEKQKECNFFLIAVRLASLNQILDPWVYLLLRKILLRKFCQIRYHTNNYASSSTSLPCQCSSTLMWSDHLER

[9] = target: T1, Prostaglandin E2 receptor EP1 subtype; experiment: Binding affinity to human EP1 receptor
[10] = target: T1, Prostaglandin E2 receptor EP1 subtype; experiment: Antagonist activity at human EP1 receptor by intracellular Ca2+ release assay; format: functional, cell-based
[11] = Intrinsic clearance in rat […] by LC/MS/MS analysis; format: ADME, cell-free
[12] = Intrinsic clearance in human […] by LC/MS/MS analysis; format: ADME, cell-free
[13] = target: Cytochrome P450 2D6 (Homo sapiens, UniProt P10635); experiment: Inhibition of CYP2D6 (unknown origin); format: ADME
[14] = target: Cytochrome P450 3A4 (Homo sapiens, UniProt P08684); experiment: Inhibition of CYP3A4 (unknown origin); format: ADME
[15] = target: Cytochrome P450 2C19 (Homo sapiens, UniProt P33261); experiment: Inhibition of CYP2C19 (unknown origin); format: ADME
[16] = target: Cytochrome P450 2C9 (Homo sapiens, UniProt P11712); experiment: Inhibition of CYP2C9 (unknown origin); format: ADME
[17] = target: T6, Cytochrome P450 1A2 (Homo sapiens, UniProt P05177); experiment: Inhibition of CYP1A2 (unknown origin); format: ADME
T6 sequence (P05177 whole entry): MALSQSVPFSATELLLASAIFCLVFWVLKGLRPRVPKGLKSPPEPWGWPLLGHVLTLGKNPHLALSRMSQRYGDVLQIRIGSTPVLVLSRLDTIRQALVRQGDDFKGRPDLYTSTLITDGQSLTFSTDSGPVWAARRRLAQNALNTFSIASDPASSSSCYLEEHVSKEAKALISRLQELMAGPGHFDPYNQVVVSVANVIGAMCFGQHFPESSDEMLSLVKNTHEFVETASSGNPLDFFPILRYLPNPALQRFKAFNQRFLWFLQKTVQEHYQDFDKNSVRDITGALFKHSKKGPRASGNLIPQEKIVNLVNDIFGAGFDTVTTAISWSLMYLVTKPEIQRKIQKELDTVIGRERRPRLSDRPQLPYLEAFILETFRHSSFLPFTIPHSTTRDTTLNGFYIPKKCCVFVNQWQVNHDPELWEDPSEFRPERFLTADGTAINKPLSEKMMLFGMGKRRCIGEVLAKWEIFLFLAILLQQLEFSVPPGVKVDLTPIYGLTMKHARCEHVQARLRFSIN

[18] = species on record: Homo sapiens; experiment: Selectivity ratio of IC50 for EP4 receptor (unknown origin) to IC50 for human EP1 receptor
[19] = species on record: Homo sapiens; experiment: Selectivity ratio of IC50 for EP3 receptor (unknown origin) to IC50 for human EP1 receptor
[20] = species on record: Homo sapiens; experiment: Selectivity ratio of IC50 for EP2 receptor (unknown origin) to IC50 for human EP1 receptor
[21] = target: T5, Prostaglandin E2 receptor EP3 subtype; experiment: Antagonist activity at EP3 receptor (unknown origin)
[22] = target: T3, Prostaglandin E2 receptor EP4 subtype; experiment: Antagonist activity at EP4 receptor (unknown origin)
[23] = target: T4, Prostaglandin E2 receptor EP2 subtype; experiment: Antagonist activity at EP2 receptor (unknown origin)
[24] = Oral bioavailability in Sprague-Dawley rat at 10 mg/kg; format: ADME, organism-based; conditions: in vivo

T3 sequence (P35408 whole entry): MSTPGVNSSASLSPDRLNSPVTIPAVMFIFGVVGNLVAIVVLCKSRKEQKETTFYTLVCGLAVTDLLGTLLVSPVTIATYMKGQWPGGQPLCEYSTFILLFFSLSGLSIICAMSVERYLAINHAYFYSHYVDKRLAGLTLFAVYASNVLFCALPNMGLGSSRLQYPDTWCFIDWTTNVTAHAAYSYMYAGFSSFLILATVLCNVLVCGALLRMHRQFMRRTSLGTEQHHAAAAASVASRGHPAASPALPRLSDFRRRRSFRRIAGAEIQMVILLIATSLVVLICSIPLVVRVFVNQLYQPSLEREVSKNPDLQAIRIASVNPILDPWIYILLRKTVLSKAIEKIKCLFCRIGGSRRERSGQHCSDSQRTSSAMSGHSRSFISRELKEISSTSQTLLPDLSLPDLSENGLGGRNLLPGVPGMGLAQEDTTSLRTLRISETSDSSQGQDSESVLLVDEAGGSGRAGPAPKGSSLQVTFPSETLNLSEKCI
Cytochrome P450 2C19, sequence (P33261 whole entry): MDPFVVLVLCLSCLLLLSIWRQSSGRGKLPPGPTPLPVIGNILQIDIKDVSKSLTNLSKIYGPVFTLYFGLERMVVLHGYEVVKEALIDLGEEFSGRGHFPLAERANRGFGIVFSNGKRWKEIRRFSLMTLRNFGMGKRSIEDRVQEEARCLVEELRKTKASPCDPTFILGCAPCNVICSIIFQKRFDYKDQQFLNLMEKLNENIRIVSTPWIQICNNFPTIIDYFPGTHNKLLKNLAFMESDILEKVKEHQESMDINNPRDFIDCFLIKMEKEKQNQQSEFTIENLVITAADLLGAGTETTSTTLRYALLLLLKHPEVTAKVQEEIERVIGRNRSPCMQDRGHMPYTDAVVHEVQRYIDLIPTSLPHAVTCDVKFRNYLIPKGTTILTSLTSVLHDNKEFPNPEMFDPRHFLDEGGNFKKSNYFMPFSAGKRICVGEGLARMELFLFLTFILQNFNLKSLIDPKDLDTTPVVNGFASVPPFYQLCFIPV
Cytochrome P450 3A4, sequence (P08684 whole entry): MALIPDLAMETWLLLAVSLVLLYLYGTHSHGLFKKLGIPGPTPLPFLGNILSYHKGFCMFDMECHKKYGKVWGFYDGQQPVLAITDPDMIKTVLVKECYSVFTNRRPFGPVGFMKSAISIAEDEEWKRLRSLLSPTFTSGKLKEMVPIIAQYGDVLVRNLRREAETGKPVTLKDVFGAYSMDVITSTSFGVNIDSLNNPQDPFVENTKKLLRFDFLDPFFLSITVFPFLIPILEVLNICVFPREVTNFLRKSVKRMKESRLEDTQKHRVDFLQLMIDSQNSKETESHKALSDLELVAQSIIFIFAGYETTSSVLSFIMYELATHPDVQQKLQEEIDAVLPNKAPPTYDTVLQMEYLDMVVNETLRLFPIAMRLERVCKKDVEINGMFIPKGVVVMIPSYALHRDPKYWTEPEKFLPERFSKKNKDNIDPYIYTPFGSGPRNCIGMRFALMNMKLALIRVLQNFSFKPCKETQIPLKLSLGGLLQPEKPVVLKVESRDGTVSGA
Cytochrome P450 2D6, sequence (P10635 whole entry): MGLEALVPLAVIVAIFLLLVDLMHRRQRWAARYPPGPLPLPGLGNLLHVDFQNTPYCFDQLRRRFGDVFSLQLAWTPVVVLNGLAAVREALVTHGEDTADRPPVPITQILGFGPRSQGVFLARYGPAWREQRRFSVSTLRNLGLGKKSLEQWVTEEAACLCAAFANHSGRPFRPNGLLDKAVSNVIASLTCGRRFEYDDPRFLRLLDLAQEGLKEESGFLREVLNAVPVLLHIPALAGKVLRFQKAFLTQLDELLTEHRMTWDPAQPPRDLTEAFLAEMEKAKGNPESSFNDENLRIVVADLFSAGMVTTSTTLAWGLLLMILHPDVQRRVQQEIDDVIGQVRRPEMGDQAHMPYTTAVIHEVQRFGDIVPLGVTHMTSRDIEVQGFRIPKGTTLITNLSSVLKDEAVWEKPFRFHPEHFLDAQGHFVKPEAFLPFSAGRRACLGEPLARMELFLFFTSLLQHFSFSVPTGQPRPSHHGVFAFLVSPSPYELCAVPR
Cytochrome P450 2C9, sequence (P11712 whole entry): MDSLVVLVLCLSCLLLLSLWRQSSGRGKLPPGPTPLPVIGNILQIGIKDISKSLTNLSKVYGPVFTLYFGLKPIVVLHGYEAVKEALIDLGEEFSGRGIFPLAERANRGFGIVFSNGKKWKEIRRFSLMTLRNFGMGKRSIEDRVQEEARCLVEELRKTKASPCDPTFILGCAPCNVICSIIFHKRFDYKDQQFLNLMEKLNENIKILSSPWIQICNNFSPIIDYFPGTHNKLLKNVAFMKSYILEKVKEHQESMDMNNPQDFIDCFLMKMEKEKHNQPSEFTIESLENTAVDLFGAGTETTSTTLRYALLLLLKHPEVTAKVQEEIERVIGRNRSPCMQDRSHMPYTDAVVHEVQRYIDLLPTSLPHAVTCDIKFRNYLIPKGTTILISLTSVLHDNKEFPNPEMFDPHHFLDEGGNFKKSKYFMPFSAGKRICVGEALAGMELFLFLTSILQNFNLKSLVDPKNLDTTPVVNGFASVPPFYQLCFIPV
T4 sequence (P43116 whole entry): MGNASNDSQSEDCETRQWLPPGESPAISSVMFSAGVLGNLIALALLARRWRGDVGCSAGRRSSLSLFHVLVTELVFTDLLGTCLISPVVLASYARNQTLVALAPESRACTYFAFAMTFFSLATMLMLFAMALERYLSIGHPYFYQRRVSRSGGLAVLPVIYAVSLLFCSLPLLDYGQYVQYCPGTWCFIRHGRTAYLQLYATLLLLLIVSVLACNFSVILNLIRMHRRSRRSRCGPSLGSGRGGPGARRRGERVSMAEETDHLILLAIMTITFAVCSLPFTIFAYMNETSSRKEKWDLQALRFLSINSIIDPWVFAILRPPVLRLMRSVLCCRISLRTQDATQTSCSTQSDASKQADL

With O=C(O)c1csc(-n2nc(-c3cccc(O)c3)cc2C(F)(F)F)n1 as the molecule, how does the pIC50 [1] read?
Its pIC50 is 6.24.

Which inhibition [2] does the source give for Cc1c(-c2ccccc2)nc(-c2nc(C(=O)O)cs2)n1-c1ccccc1 here?
The inhibition was 7%.

With O=C(O)c1csc(-n2nc(-c3ccc(O)cc3)cc2C(F)(F)F)n1 as the molecule, how does the pIC50 [1] read?
Its pIC50 is 6.49.

With Cc1c(-c2ccccc2)nn(-c2nc(C(=O)O)cs2)c1C(F)(F)F as the molecule, how does the pIC50 [1] read?
Its pIC50 is 7.08.

For CC(C)(C)c1cc(-c2ccccc2)nn1-c1nc(C(=O)O)cs1, which inhibition [2] is on record?
Its inhibition is 1%.

Which results are given for O=C(O)c1csc(-n2nc(-c3ccccc3O)cc2C(F)(F)F)n1?
Activity [3]: Non-toxic; Activity [4]: Non-toxic; Papp A→B [5]: 22.8 ×10⁻⁶ cm/s; pKi [6]: < 5.57; pKi [7]: < 5.10; pKi [8]: < 5.30; pKi [9]: 6.28; pIC50 [10]: 6.10; CLint scaled [11]: 130 mL/min/kg; CLint scaled [12]: 500 mL/min/kg; IC50 [13]: > 10 µM; IC50 [14]: > 10 µM; IC50 [15]: > 10 µM; IC50 [16]: > 10 µM; IC50 [17]: > 10 µM; pIC50 [1]: 6.74

With O=C(O)c1csc(-n2nc(-c3ccccc3)cc2-c2ccccc2)n1 as the molecule, how does the inhibition [2] read?
Its inhibition is 31%.

For O=C(O)c1csc(-n2nc(-c3ccccc3)cc2C(F)(F)F)n1, which CLint scaled [12] is on record?
The CLint scaled was 28 mL/min/kg.

And the IC50 [13]?
Its IC50 is over 10 µM.

And the IC50 [14]?
Its IC50 is over 10 µM.

And the IC50 [15]?
The IC50 was over 10 µM.

And the IC50 [16]?
Its IC50 is over 10 µM.

And the IC50 [17]?
The IC50 was over 10 µM.

What about the pIC50 [1] of the same molecule?
The pIC50 was 6.49.

With COc1ccc(-c2cc(C(F)(F)F)n(-c3nc(C(=O)O)cs3)n2)cc1 as the molecule, how does the pIC50 [1] read?
The pIC50 was 6.37.

Which inhibition [2] does the source give for Cc1cc(-c2ccccc2)nn1-c1nc(C(=O)O)cs1 here?
Its inhibition is 14%.

For COc1ccc(-c2cc(C(F)(F)F)nn2-c2nc(C(=O)O)cs2)cc1, which Ratio IC50 [18] is on record?
Its Ratio IC50 is 3.

What about the Ratio IC50 [19] of the same molecule?
The Ratio IC50 was 3.

And the Ratio IC50 [20]?
Its Ratio IC50 is 3.

And the pIC50 [21]?
Its pIC50 is under 5.30.

And the pIC50 [22]?
The pIC50 was under 5.57.

What about the pIC50 [23] of the same molecule?
Its pIC50 is under 5.10.

What about the Activity [3] of the same molecule?
Its Activity is “Non-toxic”.

And the Activity [4]?
Its Activity is “Non-toxic”.

And the pKi [6]?
Its pKi is under 5.57.

And the pKi [7]?
The pKi was under 5.10.

What about the pKi [8] of the same molecule?
Its pKi is under 5.30.

What about the pKi [9] of the same molecule?
Its pKi is 5.06.

And the pIC50 [10]?
Its pIC50 is 5.24.

And the CLint scaled [11]?
The CLint scaled was 195 mL/min/kg.

And the CLint scaled [12]?
Its CLint scaled is 187 mL/min/kg.

And the IC50 [13]?
The IC50 was over 10 µM.

And the IC50 [14]?
The IC50 was over 10 µM.

What about the IC50 [15] of the same molecule?
Its IC50 is 7.14 µM.

What about the IC50 [16] of the same molecule?
Its IC50 is over 10 µM.

What about the IC50 [17] of the same molecule?
Its IC50 is over 10 µM.

What about the pIC50 [1] of the same molecule?
The pIC50 was 6.00.

Which bioavailability [24] does the source give for Cc1c(-c2ccccc2)nn(-c2nc(C(=O)O)cs2)c1-c1ccccc1 here?
Its bioavailability is 32%.

What about the Activity [3] of the same molecule?
The Activity was “Non-toxic”.

And the Activity [4]?
The Activity was “Non-toxic”.

What about the Papp A→B [5] of the same molecule?
Its Papp A→B is 51.6 ×10⁻⁶ cm/s.

What about the pKi [6] of the same molecule?
Its pKi is under 5.57.

And the pKi [7]?
Its pKi is under 5.10.

And the pKi [8]?
The pKi was under 5.30.

What about the pKi [9] of the same molecule?
Its pKi is 6.54.

What about the pIC50 [10] of the same molecule?
The pIC50 was 6.30.

And the CLint scaled [11]?
The CLint scaled was 15 mL/min/kg.

What about the CLint scaled [12] of the same molecule?
Its CLint scaled is 35 mL/min/kg.

What about the IC50 [13] of the same molecule?
Its IC50 is over 10 µM.

And the IC50 [14]?
Its IC50 is over 10 µM.

And the IC50 [15]?
Its IC50 is 4.71 µM.

And the IC50 [16]?
The IC50 was over 10 µM.

And the IC50 [17]?
Its IC50 is 7.93 µM.

And the pIC50 [1]?
Its pIC50 is 7.30.

With Cc1ccc(-c2cc(C(F)(F)F)n(-c3nc(C(=O)O)cs3)n2)cc1 as the molecule, how does the pIC50 [1] read?
The pIC50 was 5.52.

With Cn1c(-c2ccccc2)nc(-c2nc(C(=O)O)cs2)c1-c1ccccc1 as the molecule, how does the pIC50 [1] read?
Its pIC50 is 6.30.
